Laboratory results as given in US20260337208A1, “HETEROCYCLIC DERIVATIVES AS JANUS KINASE INHIBITORS” (CHIESI FARMACEUTICI S.P.A., priority 2022, published 2026).
Values belong to the compound of their own block, whether it stands above or below them.

Key:
[1] = target: JAK1 (Homo sapiens, UniProt P23458); assay: Biochemical potency on JAK1, TR-FRET (LANCE Ultra kinase assay); settings: ATP corresponding to Km; cell-free; read-out: JAK1 inhibitory activity (pIC50) (converted)
Protocol: (§1) The objective of this study was to assess the capability of compounds to inhibit all 4 JAK isoforms activity in a cell-free environment. Assay for JAK 1, JAK 2, JAK 3 and TYK2 were performed by Time-resolved fluorescence resonance energy transfer (TR-FRET) technology. It consists in the interaction of two labelled binding partners detected by the energy transfer from an excited donor to an acceptor dye and measurement of light emission by the acceptor dye. LANCE Ultra kinase assay was used. In presence of JAK 1, JAK 2, JAK 3 and TYK2 kinases and ATP (corresponding to Km), the ULight peptide substrate (LANCE Ulight-JAK-1 (Tyr1023) Peptide, Perkin Elmer, TRF0121) is phosphorylated. It is then captured by Eu-anti-phospho-substrate antibody (LANCE Eu-W1024 Anti-phosphotyrosine (PT66), Perkin Elmer, AD0069), which bring the Eu-chelate donor and ULight acceptor dyes into close proximity. Upon excitation at 320 nm, the Eu-chelate transfers its energy to the ULight dye, resulting in a fluorescent light emission at 665 nm.
(§2) Serial dilutions of compounds in pure DMSO are prepared from 10 mM DMSO stock solutions. Compounds were tested in 384-well plate for 11 consecutive 5-fold dilutions starting from 20 μM highest concentration (20 μM-[…]). 200 nL of compound were transferred from mother plate to test plate by using Mosquito (TTP labtech). Assay was performed in 384-well Perkin Elmer test plate in 20 μL assay volume (kinase reaction) and 40 μL total volume (stopping reagent and antibody detection reagents). In 10 μL of substrate solution (peptide+ATP) 30/50/20/10 nM of peptide and 20/0.7/0.2/12 μM of ATP were added for JAK 1, JAK 2, JAK 3 and TYK2 respectively. 10 μL of enzyme solution was added to kinase reaction at these concentrations: 0.15/0.083/0.025/0.144 ng/μL of JAK 1, JAK 2, JAK 3 and TYK2 respectively. After shaking and 1.5 h of incubation at r.t., 20 μL of Stop (10 μL EDTA) and Detection mixture (10 μL Europium-anti-phospho antibody, final: 0.5 nM) were added. Reading was performed after 1 h of incubation on a En Vision 2104 reader (Perkin Elmer).
(§3) Calculation of IC50 data, curves and QC analysis was performed by using Excel tool and GraphPadPrism software, v9. Briefly, individual concentration-effect curves are generated by plotting the logarithm of the tested concentration of tested compounds (X) vs. corresponding percent inhibition values (Y) using least squares (ordinary) fit. Best fit IC50 values are calculated using Log (inhibitor) vs. normalized response—Variable slope equation, where Y=100/(1+10^((LogIC50−X)*HillSlope)). QC criteria parameters (Z′, S:B, R2, HillSlope) were checked for every IC50 curve. Calculation of IC50 data, curves and QC analysis were made using Excel tools and GraphPadPrism software. QC criteria parameters: Z′≥0.5, Hill Slope range 0.5 to 5, S:B>2.

[2] = system: pSTAT6 in BEAS-2B human cell line; assay: Inhibition of IL-13 induced pSTAT6 in BEAS; type: cell-based; settings: for IC50: Homo sapiens, BEAS-2B, 0.5 h, parent compound; for IC50 / pIC50 (BEAS) predicted acid metabolite: IL-13 trigger, 30 min; for Fold difference parent vs predicted acid metabolite: ratio=IC50 predicted acid metabolite/IC50 ester
Protocol: BEAS-2B human cell line was seeded (100.000 cells/well) and incubated for 48 h at 37° C., 5% CO2, 95% humidity. Compounds were added and incubated 30 min followed by IL-13 as trigger. After 30 min incubation, cells were lysed and pSTAT6 determined by Fastscan phospho-stat6 (Tyr641) sandwich ELISA kit (cell signaling). Inhibitors were tested at 11 consecutive 5-fold dilutions starting from 10 μM (10 μM-[…]) in duplicate. Calculation of IC50 data, curves and QC analysis were made using Excel tools and GraphPadPrism software. QC criteria parameters: Z′≥0.35, Hill Slope range 0.5 to 5, S:B>2.

[3] = target: TYK2 (Homo sapiens, UniProt P29597); assay: Biochemical potency on Tyk2, TR-FRET (LANCE Ultra kinase assay); settings: ATP corresponding to Km; cell-free; read-out: TYK2 inhibitory activity (pIC50) (converted)
Chain of TYK2 (P29597 whole entry): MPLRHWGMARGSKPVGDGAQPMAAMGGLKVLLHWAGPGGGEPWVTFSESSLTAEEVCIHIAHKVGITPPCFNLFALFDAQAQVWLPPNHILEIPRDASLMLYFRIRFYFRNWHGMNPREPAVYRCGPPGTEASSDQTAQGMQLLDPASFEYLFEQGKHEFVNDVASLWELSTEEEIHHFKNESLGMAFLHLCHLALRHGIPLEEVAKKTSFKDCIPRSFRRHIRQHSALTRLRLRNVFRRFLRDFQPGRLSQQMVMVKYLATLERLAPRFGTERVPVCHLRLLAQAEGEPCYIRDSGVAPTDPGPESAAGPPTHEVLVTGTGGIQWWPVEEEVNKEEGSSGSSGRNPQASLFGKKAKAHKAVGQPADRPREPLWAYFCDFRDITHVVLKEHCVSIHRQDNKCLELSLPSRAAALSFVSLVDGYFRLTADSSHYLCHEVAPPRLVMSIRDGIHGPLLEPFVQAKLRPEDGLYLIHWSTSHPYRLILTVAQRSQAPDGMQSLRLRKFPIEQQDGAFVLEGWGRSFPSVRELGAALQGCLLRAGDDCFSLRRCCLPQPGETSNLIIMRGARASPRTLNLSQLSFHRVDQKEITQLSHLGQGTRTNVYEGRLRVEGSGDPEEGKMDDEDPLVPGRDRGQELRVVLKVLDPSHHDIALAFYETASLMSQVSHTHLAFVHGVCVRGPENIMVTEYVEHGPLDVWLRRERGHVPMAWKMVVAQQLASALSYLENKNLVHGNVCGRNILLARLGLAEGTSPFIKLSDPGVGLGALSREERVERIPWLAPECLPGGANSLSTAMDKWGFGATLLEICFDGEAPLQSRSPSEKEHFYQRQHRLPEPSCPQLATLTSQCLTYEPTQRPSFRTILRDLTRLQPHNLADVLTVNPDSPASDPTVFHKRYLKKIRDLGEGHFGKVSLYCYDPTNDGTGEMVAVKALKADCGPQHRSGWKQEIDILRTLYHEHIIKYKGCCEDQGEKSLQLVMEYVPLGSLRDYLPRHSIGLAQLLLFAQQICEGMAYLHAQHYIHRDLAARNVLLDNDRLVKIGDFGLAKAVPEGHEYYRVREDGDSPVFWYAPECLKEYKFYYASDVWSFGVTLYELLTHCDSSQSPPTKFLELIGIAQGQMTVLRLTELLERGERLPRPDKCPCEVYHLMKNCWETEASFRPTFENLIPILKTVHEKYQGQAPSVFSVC
Protocol: as §1, §2, §3

[4] = target: T1, JAK3 (Homo sapiens, UniProt P52333); assay: Biochemical potency on JAK3, TR-FRET (LANCE Ultra kinase assay); settings: ATP corresponding to Km; cell-free; read-out: JAK3 inhibitory activity (pIC50) (converted)
T1 sequence (P52333 1-1124): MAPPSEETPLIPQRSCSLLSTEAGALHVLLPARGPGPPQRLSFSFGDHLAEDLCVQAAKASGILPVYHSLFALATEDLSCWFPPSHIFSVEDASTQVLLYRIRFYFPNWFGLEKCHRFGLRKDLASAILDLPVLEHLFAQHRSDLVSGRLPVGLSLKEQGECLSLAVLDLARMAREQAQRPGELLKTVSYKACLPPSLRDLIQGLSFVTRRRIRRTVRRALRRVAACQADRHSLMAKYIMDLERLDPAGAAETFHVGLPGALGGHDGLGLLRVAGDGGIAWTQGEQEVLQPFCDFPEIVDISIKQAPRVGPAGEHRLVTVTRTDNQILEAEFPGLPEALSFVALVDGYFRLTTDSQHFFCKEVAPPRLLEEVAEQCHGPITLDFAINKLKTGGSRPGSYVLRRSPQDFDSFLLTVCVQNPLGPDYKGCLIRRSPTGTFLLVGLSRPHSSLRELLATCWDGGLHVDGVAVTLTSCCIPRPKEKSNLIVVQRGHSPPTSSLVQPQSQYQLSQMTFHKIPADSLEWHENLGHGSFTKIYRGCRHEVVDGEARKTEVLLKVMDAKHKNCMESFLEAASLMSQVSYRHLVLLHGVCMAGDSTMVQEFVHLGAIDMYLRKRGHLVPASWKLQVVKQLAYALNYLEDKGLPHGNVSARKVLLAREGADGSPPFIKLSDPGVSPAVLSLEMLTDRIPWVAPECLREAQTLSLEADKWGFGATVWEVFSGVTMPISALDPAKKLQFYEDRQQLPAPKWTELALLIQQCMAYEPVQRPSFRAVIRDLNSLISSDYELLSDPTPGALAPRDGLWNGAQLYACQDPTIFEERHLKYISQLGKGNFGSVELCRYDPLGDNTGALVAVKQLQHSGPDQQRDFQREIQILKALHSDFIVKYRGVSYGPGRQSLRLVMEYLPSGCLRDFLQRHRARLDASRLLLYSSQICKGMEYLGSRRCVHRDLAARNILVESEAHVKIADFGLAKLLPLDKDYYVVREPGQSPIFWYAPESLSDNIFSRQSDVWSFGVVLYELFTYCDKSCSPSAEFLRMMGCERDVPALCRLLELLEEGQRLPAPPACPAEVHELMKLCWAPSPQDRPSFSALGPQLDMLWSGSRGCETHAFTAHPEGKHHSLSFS
Protocol: as §1, §2, §3

[5] = target: JAK2 (Homo sapiens, UniProt O60674); assay: Biochemical potency on JAK2, TR-FRET (LANCE Ultra kinase assay); settings: ATP corresponding to Km; cell-free; read-out: JAK2 inhibitory activity (pIC50) (converted)
Chain of JAK2 (O60674 whole entry): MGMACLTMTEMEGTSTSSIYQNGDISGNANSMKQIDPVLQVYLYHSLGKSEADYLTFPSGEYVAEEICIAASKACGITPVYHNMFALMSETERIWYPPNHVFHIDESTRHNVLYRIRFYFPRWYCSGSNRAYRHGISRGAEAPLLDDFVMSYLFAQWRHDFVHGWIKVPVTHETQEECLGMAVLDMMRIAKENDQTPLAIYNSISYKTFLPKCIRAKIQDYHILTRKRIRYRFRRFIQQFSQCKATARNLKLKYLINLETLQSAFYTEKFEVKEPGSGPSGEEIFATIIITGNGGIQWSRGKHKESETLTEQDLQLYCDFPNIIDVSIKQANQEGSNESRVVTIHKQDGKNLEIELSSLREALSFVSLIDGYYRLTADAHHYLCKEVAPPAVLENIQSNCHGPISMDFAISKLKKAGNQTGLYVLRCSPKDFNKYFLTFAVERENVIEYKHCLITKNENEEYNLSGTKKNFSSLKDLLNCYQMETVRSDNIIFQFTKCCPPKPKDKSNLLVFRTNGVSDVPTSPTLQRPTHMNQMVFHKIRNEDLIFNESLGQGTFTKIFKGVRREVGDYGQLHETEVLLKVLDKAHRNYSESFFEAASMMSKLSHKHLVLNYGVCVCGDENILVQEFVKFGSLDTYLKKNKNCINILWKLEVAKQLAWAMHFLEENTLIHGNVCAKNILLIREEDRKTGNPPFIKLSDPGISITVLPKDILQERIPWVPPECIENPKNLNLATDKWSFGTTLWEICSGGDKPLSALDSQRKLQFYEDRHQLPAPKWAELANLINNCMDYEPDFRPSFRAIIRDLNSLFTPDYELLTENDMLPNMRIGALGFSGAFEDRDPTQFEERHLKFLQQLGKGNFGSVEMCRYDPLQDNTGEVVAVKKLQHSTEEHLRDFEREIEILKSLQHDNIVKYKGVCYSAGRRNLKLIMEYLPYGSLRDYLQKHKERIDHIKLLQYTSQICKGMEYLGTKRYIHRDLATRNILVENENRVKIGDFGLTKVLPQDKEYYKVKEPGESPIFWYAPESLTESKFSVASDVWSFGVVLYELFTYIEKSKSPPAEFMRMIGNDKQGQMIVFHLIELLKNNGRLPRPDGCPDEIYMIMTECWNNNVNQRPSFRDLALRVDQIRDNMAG
Protocol: as §1, §2, §3

Chain of JAK1 (P23458 whole entry, canonical isoform): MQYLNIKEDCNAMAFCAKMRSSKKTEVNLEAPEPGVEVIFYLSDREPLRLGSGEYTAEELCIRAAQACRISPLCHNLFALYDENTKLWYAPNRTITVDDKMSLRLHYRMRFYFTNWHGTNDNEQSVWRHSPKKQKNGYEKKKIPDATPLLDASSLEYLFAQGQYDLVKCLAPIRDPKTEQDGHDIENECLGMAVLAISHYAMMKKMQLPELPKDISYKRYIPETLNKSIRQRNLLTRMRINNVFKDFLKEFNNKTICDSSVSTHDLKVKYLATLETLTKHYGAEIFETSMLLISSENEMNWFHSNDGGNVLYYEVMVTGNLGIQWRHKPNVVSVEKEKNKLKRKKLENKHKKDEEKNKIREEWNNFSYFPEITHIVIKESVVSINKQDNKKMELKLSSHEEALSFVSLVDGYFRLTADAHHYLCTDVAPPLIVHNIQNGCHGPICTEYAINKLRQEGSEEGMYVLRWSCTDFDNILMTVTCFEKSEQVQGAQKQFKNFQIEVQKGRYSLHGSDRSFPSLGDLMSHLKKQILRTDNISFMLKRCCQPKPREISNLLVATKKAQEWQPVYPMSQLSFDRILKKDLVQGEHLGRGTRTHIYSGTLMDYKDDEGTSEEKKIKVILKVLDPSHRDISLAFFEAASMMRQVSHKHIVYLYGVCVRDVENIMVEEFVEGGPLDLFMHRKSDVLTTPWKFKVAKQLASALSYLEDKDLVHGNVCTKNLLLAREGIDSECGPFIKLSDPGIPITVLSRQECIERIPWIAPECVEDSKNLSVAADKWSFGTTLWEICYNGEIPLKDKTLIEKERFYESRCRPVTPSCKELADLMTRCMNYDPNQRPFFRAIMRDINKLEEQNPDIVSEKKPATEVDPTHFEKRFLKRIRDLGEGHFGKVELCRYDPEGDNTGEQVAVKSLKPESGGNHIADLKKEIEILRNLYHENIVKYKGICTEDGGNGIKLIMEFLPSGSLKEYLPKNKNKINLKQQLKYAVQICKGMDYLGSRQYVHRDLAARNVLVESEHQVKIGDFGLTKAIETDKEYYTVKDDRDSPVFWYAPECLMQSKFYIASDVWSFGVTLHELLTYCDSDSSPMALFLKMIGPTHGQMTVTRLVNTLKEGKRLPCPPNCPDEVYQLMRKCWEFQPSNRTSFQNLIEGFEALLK

IC50 [1]: ≤ 5.01 nM
IC50 [3]: 5.01 to 50.1 nM
IC50 [4]: ≤ 5.01 nM
IC50 [5]: ≤ 5.01 nM
SMILES: COC(=O)[C@H]1CCN(CCNC(=O)c2nn(-c3cc4c(cc3OC)NCCO4)c3cc(-c4cnn5cccnc45)ncc23)C1 [Example 30, methyl (S)-1-(2-(1-(6-methoxy-3,4-dihydro-2H-benzo[b][1,4]oxazin-7-yl)-6-(pyrazolo[1,5-a]pyrimidin-3-yl)-1H-pyrazolo[4,3-c]pyridine-3-carboxamido)ethyl)pyrrolidine-3-carboxylate]
IC50 [2]: 5.01 to 50.1 nM
Fold difference parent vs predicted acid metabolite [2]: kkkk (ratio≥200)

IC50 [1]: ≤ 5.01 nM
IC50 [3]: 5.01 to 50.1 nM
IC50 [4]: ≤ 5.01 nM
IC50 [5]: ≤ 5.01 nM
SMILES: CCOC(=O)[C@H]1CCN(CCNC(=O)c2nn(-c3cc4c(cc3OC)NCCO4)c3cc(-c4cnn5cccnc45)ncc23)C1 [Example 44, ethyl (S)-1-(2-(1-(6-methoxy-3,4-dihydro-2H-benzo[b][1,4]oxazin-7-yl)-6-(pyrazolo[1,5-a]pyrimidin-3-yl)-1H-pyrazolo[4,3-c]pyridine-3-carboxamido)ethyl)pyrrolidine-3-carboxylate]
IC50 [2]: 5.01 to 50.1 nM
Fold difference parent vs predicted acid metabolite [2]: kkkk (ratio≥200)

IC50 [1]: ≤ 5.01 nM
IC50 [3]: 5.01 to 50.1 nM
IC50 [4]: ≤ 5.01 nM
IC50 [5]: ≤ 5.01 nM
SMILES: CCOC(=O)C1CCN(CCNC(=O)c2nn(-c3cc4c(cc3OC)NCCO4)c3cc(-c4cnn5cccnc45)ncc23)CC1 [Example 9, ethyl 1-(2-(1-(6-methoxy-3,4-dihydro-2H-benzo[b][1,4]oxazin-7-yl)-6-(pyrazolo[1,5-a]pyrimidin-3-yl)-1H-pyrazolo[4,3-c]pyridine-3-carboxamido)ethyl)piperidine-4-carboxylate]
IC50 [2]: ≤ 5.01 nM
Fold difference parent vs predicted acid metabolite [2]: kkkk (ratio≥200)

SMILES: COc1cc2c(cc1-n1nc(C(=O)NCCN3CC[C@@H](C(=O)O)C3)c3cnc(-c4cnn5cccnc45)cc31)OCCN2 [Example A4, reference compound]
pIC50 (BEAS) predicted acid metabolite [2]: § (pIC50<6.3)

SMILES: COc1cc2c(cc1-n1nc(NC(=O)OCCN3CCC(C(=O)O)CC3)c3cnc(-c4cnn5cccnc45)cc31)SCCN2 [Example A5, reference compound]
pIC50 (BEAS) predicted acid metabolite [2]: §§ (7.3>pIC50≥6.3)

SMILES: COc1cc2c(cc1-n1nc(C(=O)NCCN3CC[C@H](C(=O)O)C3)c3cnc(-c4cnn5cccnc45)cc31)OCCN2 [Example A3, reference compound]
pIC50 (BEAS) predicted acid metabolite [2]: § (pIC50<6.3)

SMILES: COc1cc2c(cc1-n1nc(C(=O)NCCN3CCC(C(=O)O)CC3)c3cnc(-c4cnn5cccnc45)cc31)SCCN2 [Example A2, reference compound]
pIC50 (BEAS) predicted acid metabolite [2]: §§ (7.3>pIC50≥6.3)

SMILES: COc1cc2c(cc1-n1nc(C(=O)NCCN3CCC(CC(=O)O)CC3)c3cnc(-c4cnn5cccnc45)cc31)OCCN2 [Example A12, 2-(1-(2-(1-(6-methoxy-3,4-dihydro-2H-benzo[b][1,4]oxazin-7-yl)-6-(pyrazolo[1,5-a]pyrimidin-3-yl)-1H-pyrazolo[4,3-c]pyridine-3-carboxamido)ethyl)piperidin-4-yl)acetic acid, reference compound]
pIC50 (BEAS) predicted acid metabolite [2]: § (pIC50<6.3)

SMILES: COc1cc2c(cc1-n1nc(NC(=O)OCC(=O)O)c3cnc(-c4cnn5cccnc45)cc31)SCCN2 [Example A10, 2-(((1-(6-Methoxy-3,4-dihydro-2H-benzo[b][1,4]thiazin-7-yl)-6-(pyrazolo[1,5-a]pyrimidin-3-yl)-1H-pyrazolo[4,3-c]pyridin-3-yl)carbamoyl)oxy)acetic acid, reference compound]
pIC50 (BEAS) predicted acid metabolite [2]: § (pIC50<6.3)

SMILES: COc1cc2c(cc1-n1nc(NC(=O)OCC(=O)O)c3cnc(-c4cnn5cccnc45)cc31)OCCN2 [Example A6, reference compound]
pIC50 (BEAS) predicted acid metabolite [2]: § (pIC50<6.3)

SMILES: COc1cc2c(cc1-n1nc(C(=O)NCCN3CCC(C(=O)O)CC3)c3cnc(-c4cnn5cccnc45)cc31)OCCN2 [Example A1, 1-(2-(1-(6-methoxy-3,4-dihydro-2H-benzo[b][1,4]oxazin-7-yl)-6-(pyrazolo[1,5-a]pyrimidin-3-yl)-1H-pyrazolo[4,3-c]pyridine-3-carboxamido)ethyl)piperidine-4-carboxylic acid, reference compound]
pIC50 (BEAS) predicted acid metabolite [2]: § (pIC50<6.3)

SMILES: COc1cc2c(cc1-n1nc(NC(=O)OCCN3CCC(C(=O)O)CC3)c3cnc(-c4cnn5cccnc45)cc31)OCCN2 [Example A8, reference compound]
pIC50 (BEAS) predicted acid metabolite [2]: § (pIC50<6.3)

SMILES: COc1cc2c(cc1-n1nc(NC(=O)O[C@H]3C[C@@H](C(=O)O)C3)c3cnc(-c4cnn5cccnc45)cc31)OCCN2 [Example A7, reference compound]
pIC50 (BEAS) predicted acid metabolite [2]: § (pIC50<6.3)

SMILES: COc1cc2c(cc1-n1nc(C(=O)NCCN3CCC(C(=O)O)CC3)c3cnc(Nc4ncc[nH]c4=O)cc31)OCCN2 [Example A11, reference compound]
pIC50 (BEAS) predicted acid metabolite [2]: § (pIC50<6.3)

SMILES: COc1cc2c(cc1-n1nc(C(=O)O)c3cnc(-c4cnn5cccnc45)cc31)OCCN2 [Example A9, 1-(6-Methoxy-3,4-dihydro-2H-benzo[b][1,4]oxazin-7-yl)-6-(pyrazolo[1,5-a]pyrimidin-3-yl)-1H-pyrazolo[4,3-c]pyridine-3-carboxylic acid, reference compound]
pIC50 (BEAS) predicted acid metabolite [2]: § (pIC50<6.3)
